From patent US11014942B2, “Preparation of a solid form of gadobenate dimeglumine” (BRACCO IMAGING S.P.A., priority 2014, dated 2021)

Experiments:
[1] = cited from earlier work; for Log P of antisolvent B: Table 1, CRC Handbook, values labelled * from U.S. National Library of Medicine; for log P (octanol/water partition coefficient): values listed in the description, CRC Handbook or US National Library of Medicine tables
[2] = water dissolution of the solid form; assay type: physicochemical
Text: As formerly discussed, the complex compound collected with the proposed process is endowed with a good stability, favorable workability and, especially, optimal water solubility.

[3] = storage stability of the collected solid; assay type: physicochemical; details: when properly stored, under inert atmosphere
Text: Moreover, after its isolation, the collected solid product can conveniently be stored for long periods of time, for instance up to 2 years when properly stored, (i.e. under inert atmosphere) in a form that is ready for use in the preparation of the MultiHance® formulation, by simple dissolution of the solid compound in the proper amount of a pharmaceutically acceptable aqueous solution, such as, for instance, the sterile water for injections (WFI) or any another proper aqueous medium, according to procedures commonly employed in the art.

[4] = solubility in solvent A (upper concentration limit); assay type: physicochemical
Text: Higher concentrations (of the gadobenate compound in the solvent A), for instance of at least 10% or, preferably, equal to or higher than 20%, are, however, preferred for the use of the invention, conveniently reducing organic solvent waste.

| SMILES | Log P of antisolvent B [1] | log P (octanol/water partition coefficient) [1] | also measured |
| --- | --- | --- | --- |
| CC(=O)CC(C)C [methyl isobutyl ketone] | 0.56 | 0.56 |  |
| C1CCOC1 [tetrahydrofurane] | 0.46 | 0.46 |  |
| COCC(C)O (stereo not drawn) [1-methoxy-2-propanol] | −0.44 | −0.437 |  |
| COCCOCCOC [diethylene glycol dimethyl ether] | −0.36* | −0.36 |  |
| O=C1CCCCC1 [cyclohexanone] |  | 0.81 |  |
| O=C([O-])CN(CCN(CC(=O)[O-])CC(=O)[O-])CCN(CC(=O)O)C(COCc1ccccc1)C(=O)O.[Gd+3] (stereo not drawn) [gadobenate dimeglumine, gadolinium complex of the 4-carboxy-5,8,11-tris(carboxymethyl)-1-phenyl-2-oxa-5,8,11-triazatridecan-13-oic acid] |  |  | water required for complete dissolution ([2]; at 25-30° C.): less than 1 mL of water for 1 g of product; time to complete ready dissolution in water ([2]; less than 1 mL of water for 1 g of product at 25-30° C.): less than five minutes; storage time of the collected solid product [3]: up to 2 years; upper concentration limit consistent with solubility in methanol ([4]; solvent A methanol): about 50%; upper concentration limit based on solubility in water or aqueous solvent ([4]; solvent A water or aqueous solvent such as saline solution): about 70% |
| CCC(C)=O [2-butanone] |  | 0.29 |  |
